In ChEMBL document CHEMBL1201862, “PubChem BioAssay data set” (2004):
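Exposure lasted 48 hours, with cells grown in 96-well plates and compounds tested at five concentrations. GI50 = concentration required for 50% inhibition of growth.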 Activity calls are given as the source filed them. Rule as the data show it: active = GI50 up to about 1.1 µM and inactive = higher.

What was measured:
Experiment in all cases: DTP human tumour cell line panel, 48 h
A498 = test system: A498
A549 = test system: A549
ACHN = test system: ACHN
CAKI-1 = test system: CAKI-1
DLD-1 = test system: DLD-1
DMS-114 = test system: DMS-114
HCC 2998 = test system: HCC 2998
HCT-116 = test system: HCT-116
HCT-15 = test system: HCT-15
HL-60 = test system: HL-60
HOP-18 = test system: HOP-18
HOP-62 = test system: HOP-62
HOP-92 = test system: HOP-92
HT-29 = test system: HT-29
KM-20L2 = test system: KM-20L2
KM12 = test system: KM12
LOX IMVI = test system: LOX IMVI
LXFL 529 = test system: LXFL 529
M14 = test system: M14
MOLT-4 = test system: MOLT-4
Malme-3M = test system: Malme-3M
NCI-H226 = test system: NCI-H226
NCI-H23 = test system: NCI-H23
NCI-H460 = test system: NCI-H460
NCI-H522 = test system: NCI-H522
OVCAR-4 = test system: OVCAR-4
OVCAR-5 = test system: OVCAR-5
RPMI-8226 = test system: RPMI-8226
RXF 393 = test system: RXF 393
RXF 631 = test system: RXF 631
SF-268 = test system: SF-268
SF-295 = test system: SF-295
SK-MEL-28 = test system: SK-MEL-28
SK-MEL-2 = test system: SK-MEL-2
SK-MEL-5 = test system: SK-MEL-5
SK-OV-3 = test system: SK-OV-3
SN12C = test system: SN12C
SNB-19 = test system: SNB-19
SNB-75 = test system: SNB-75
SNB-78 = test system: SNB-78
SR = test system: SR
SW-620 = test system: SW-620
TK-10 = test system: TK-10
U-251 = test system: U-251
UACC-257 = test system: UACC-257
XF498 = test system: XF498
EKVX = test system: EKVX
M19-MEL = test system: M19-MEL

With `N#CC1=C(c2ccccc2)NNC(c2ccc(Cl)cc2)CC1=O` (centres undefined) as the molecule, how does the GI50 (A498) read?
Its GI50 is 68.7 µM (inactive).

And the GI50 (A549)?
The GI50 was 39.9 µM (inactive).

And the GI50 (ACHN)?
Its GI50 is 49.2 µM (inactive).

What about the GI50 (CAKI-1) of the same molecule?
Its GI50 is 40.6 µM (inactive).

What about the GI50 (DLD-1) of the same molecule?
The GI50 was 32.4 µM (inactive).

What about the GI50 (DMS-114) of the same molecule?
Its GI50 is 82.2 µM (inactive).

And the GI50 (HCC 2998)?
Its GI50 is 56.6 µM (inactive).

What about the GI50 (HCT-116) of the same molecule?
Its GI50 is 49.3 µM (inactive).

And the GI50 (HCT-15)?
The GI50 was 26.2 µM.

What about the GI50 (HL-60) of the same molecule?
The GI50 was 17.6 µM (inactive).

And the GI50 (HOP-18)?
Its GI50 is > 100 µM (inactive).

What about the GI50 (HOP-62) of the same molecule?
Its GI50 is 23.3 µM (inactive).

What about the GI50 (HOP-92) of the same molecule?
The GI50 was 43.3 µM (inactive).

And the GI50 (HT-29)?
The GI50 was 30.8 µM (inactive).

What about the GI50 (KM-20L2) of the same molecule?
The GI50 was 24 µM (inactive).

What about the GI50 (KM12) of the same molecule?
Its GI50 is 38 µM (inactive).

And the GI50 (LOX IMVI)?
The GI50 was 32.8 µM (inactive).

And the GI50 (LXFL 529)?
Its GI50 is 28.7 µM (inactive).

And the GI50 (M14)?
The GI50 was 25.6 µM (inactive).

And the GI50 (MOLT-4)?
Its GI50 is 58.7 µM (inactive).

And the GI50 (Malme-3M)?
Its GI50 is 32.4 µM (inactive).

And the GI50 (NCI-H226)?
The GI50 was 0.165 µM (active).

And the GI50 (NCI-H23)?
Its GI50 is 73.6 µM (inactive).

And the GI50 (NCI-H460)?
Its GI50 is 36.1 µM (inactive).

What about the GI50 (NCI-H522) of the same molecule?
The GI50 was 20.4 µM (inactive).

What about the GI50 (OVCAR-4) of the same molecule?
Its GI50 is 42.9 µM (inactive).

What about the GI50 (OVCAR-5) of the same molecule?
Its GI50 is 37.1 µM (inactive).

And the GI50 (RPMI-8226)?
The GI50 was 29.9 µM (inactive).

What about the GI50 (RXF 393) of the same molecule?
The GI50 was 54.2 µM (inactive).

What about the GI50 (RXF 631) of the same molecule?
Its GI50 is > 10 µM (inactive).

What about the GI50 (SF-268) of the same molecule?
Its GI50 is 50.8 µM (inactive).

And the GI50 (SF-295)?
Its GI50 is 24.6 µM (inactive).

And the GI50 (SK-MEL-28)?
The GI50 was 91.4 µM (inactive).

And the GI50 (SK-MEL-2)?
The GI50 was 29.4 µM (inactive).

And the GI50 (SK-MEL-5)?
Its GI50 is 20.9 µM (inactive).

And the GI50 (SK-OV-3)?
Its GI50 is 44.4 µM (inactive).

What about the GI50 (SN12C) of the same molecule?
The GI50 was 45.5 µM (inactive).

What about the GI50 (SNB-19) of the same molecule?
Its GI50 is 53.2 µM (inactive).

And the GI50 (SNB-75)?
Its GI50 is 14.8 µM (inactive).

What about the GI50 (SNB-78) of the same molecule?
Its GI50 is > 100 µM (inactive).

And the GI50 (SR)?
Its GI50 is 39.2 µM (inactive).

And the GI50 (SW-620)?
Its GI50 is 33.5 µM (inactive).

And the GI50 (TK-10)?
The GI50 was > 100 µM (inactive).

And the GI50 (U-251)?
Its GI50 is 57.8 µM (inactive).

What about the GI50 (UACC-257) of the same molecule?
Its GI50 is 45 µM (inactive).

And the GI50 (XF498)?
Its GI50 is 26.2 µM (inactive).

With `O=C1c2c(O)cc(O)cc2OC(c2ccc(O)cc2O)C1O` (centres undefined) as the molecule, how does the GI50 (A549) read?
The GI50 was 79.6 µM (inactive).

And the GI50 (CAKI-1)?
Its GI50 is 59.3 µM (inactive).

And the GI50 (DLD-1)?
The GI50 was 50.9 µM (inactive).

What about the GI50 (DMS-114) of the same molecule?
The GI50 was 32.5 µM (inactive).

And the GI50 (EKVX)?
Its GI50 is 60.8 µM (inactive).

What about the GI50 (HOP-18) of the same molecule?
Its GI50 is 31.8 µM (inactive).

What about the GI50 (KM-20L2) of the same molecule?
The GI50 was 54 µM (inactive).

And the GI50 (KM12)?
Its GI50 is 60.4 µM (inactive).

What about the GI50 (LXFL 529) of the same molecule?
Its GI50 is 36.1 µM (inactive).

What about the GI50 (M19-MEL) of the same molecule?
Its GI50 is 29.9 µM (inactive).

And the GI50 (MOLT-4)?
Its GI50 is 28.6 µM (inactive).

What about the GI50 (NCI-H23) of the same molecule?
The GI50 was 57.5 µM (inactive).

And the GI50 (NCI-H460)?
Its GI50 is 57.8 µM (inactive).

And the GI50 (RXF 631)?
The GI50 was 40.5 µM (inactive).

What about the GI50 (SF-295) of the same molecule?
The GI50 was 56.4 µM (inactive).

What about the GI50 (SNB-78) of the same molecule?
Its GI50 is 42.1 µM (inactive).

And the GI50 (SR)?
Its GI50 is 25.7 µM (inactive).

What about the GI50 (TK-10) of the same molecule?
Its GI50 is 57.4 µM (inactive).
